From ChEMBL document CHEMBL3885881, “DrugMatrix”

Organism: Rattus norvegicus
Assay: DrugMatrix - Regimen: Daily Repeat
Type: toxicity, organism-based, Sprague-Dawley
Design: regimen Daily Repeat, gender Male, age 6-8 weeks
Settings: in vivo, po, route oral GAVAGE, vehicle .5 % CMC; for ABSOLUTE BASOPHIL / ABSOLUTE EOSINOPHIL / ABSOLUTE LYMPHOCYTE / ABSOLUTE MONOCYTE / ABSOLUTE SEGMENTED NEUTROPHIL / BASOPHIL / EOSINOPHIL / ERYTHROCYTE COUNT / HEMATOCRIT / HEMOGLOBIN / LEUKOCYTE COUNT / LYMPHOCYTE / MEAN CORPUSCULAR HEMOGLOBIN / MEAN CORPUSCULAR HEMOGLOBIN CONCENTRATION / MEAN CORPUSCULAR VOLUME / MONOCYTE / NEUTROPHIL / NUCLEATED RED BLOOD CELLS / PLATELET COUNT: tissue Blood; for ALANINE AMINOTRANSFERASE / ALBUMIN / ALKALINE PHOSPHATASE / ASPARTATE AMINOTRANSFERASE / BLOOD UREA NITROGEN / CARBON DIOXIDE / CHLORIDE / CHOLESTEROL / CREATINE PHOSPHOKINASE / CREATININE / GLUCOSE / LACTATE DEHYDROGENASE / LIPASE / PHOSPHORUS / POTASSIUM / SODIUM / TOTAL BILIRUBIN / TOTAL PROTEIN / URIC ACID: tissue Plasma
[1] = 2 mg/kg, 72 h, dose level Low, time 3 day
[2] = 2 mg/kg, 120 h, dose level Low, time 5 day
[3] = 83 mg/kg, 72 h, dose level High, time 3 day
[4] = 83 mg/kg, 120 h, dose level High, time 5 day

## Nc1cc(N2CCCCC2)nc(N)[n+]1[O-] [MINOXIDIL]
[1]
  ABSOLUTE BASOPHIL: 0 CELLS/uL
  ABSOLUTE EOSINOPHIL: 0 CELLS/uL
  ABSOLUTE LYMPHOCYTE: 9089 CELLS/uL
  ABSOLUTE MONOCYTE: 42.33 CELLS/uL
  ABSOLUTE SEGMENTED NEUTROPHIL: 735.33 CELLS/uL
  BASOPHIL: 0%
  EOSINOPHIL: 0%
  ERYTHROCYTE COUNT: 4.78 x10E6/uL
  HEMATOCRIT: 30.6%
  HEMOGLOBIN: 12.57 G/DL
  LEUKOCYTE COUNT: 9.87 x10E3/uL
  LYMPHOCYTE: 92%
  MEAN CORPUSCULAR HEMOGLOBIN: 26.3 pg
  MEAN CORPUSCULAR HEMOGLOBIN CONCENTRATION: 41.1 G/DL
  MEAN CORPUSCULAR VOLUME: 64.07 fL
  MONOCYTE: 0.33%
  NEUTROPHIL: 7.67%
  NUCLEATED RED BLOOD CELLS: 0 /100WBC
  PLATELET COUNT: 1041 x10E3/uL
  ALANINE AMINOTRANSFERASE: 50.33 u/L
  ALBUMIN: 4.3 G/DL
  ALKALINE PHOSPHATASE: 415 u/L
  ASPARTATE AMINOTRANSFERASE: 94.33 u/L
  BLOOD UREA NITROGEN: 18 mg/dL
  CARBON DIOXIDE: 35.33 mmol/L
  CHLORIDE: 100.67 MEQ/L
  CHOLESTEROL: 74.67 mg/dL
  CREATINE PHOSPHOKINASE: 368.67 u/L
  CREATININE: 0.23 mg/dL
  GLUCOSE: 127.67 mg/dL
  LACTATE DEHYDROGENASE: 159 u/L
  LIPASE: 10 u/L
  PHOSPHORUS: 11.3 mg/dL
  POTASSIUM: 6.23 MEQ/L
  SODIUM: 147.5 MEQ/L
  TOTAL BILIRUBIN: 0.1 mg/dL
  TOTAL PROTEIN: 6.03 G/DL
  URIC ACID: 0.93 mg/dL
[2]
  ABSOLUTE BASOPHIL: 0 CELLS/uL
  ABSOLUTE EOSINOPHIL: 0 CELLS/uL
  ABSOLUTE LYMPHOCYTE: 14468 CELLS/uL
  ABSOLUTE MONOCYTE: 213.67 CELLS/uL
  ABSOLUTE SEGMENTED NEUTROPHIL: 818.33 CELLS/uL
  BASOPHIL: 0%
  EOSINOPHIL: 0%
  ERYTHROCYTE COUNT: 5.34 x10E6/uL
  HEMATOCRIT: 33.6%
  HEMOGLOBIN: 13.27 G/DL
  LEUKOCYTE COUNT: 15.5 x10E3/uL
  LYMPHOCYTE: 93.33%
  MEAN CORPUSCULAR HEMOGLOBIN: 24.8 pg
  MEAN CORPUSCULAR HEMOGLOBIN CONCENTRATION: 39.47 G/DL
  MEAN CORPUSCULAR VOLUME: 62.9 fL
  MONOCYTE: 1.33%
  NEUTROPHIL: 5.33%
  NUCLEATED RED BLOOD CELLS: 0 /100WBC
  PLATELET COUNT: 1308.33 x10E3/uL
  ALANINE AMINOTRANSFERASE: 52 u/L
  ALBUMIN: 4.33 G/DL
  ALKALINE PHOSPHATASE: 362.67 u/L
  ASPARTATE AMINOTRANSFERASE: 78.67 u/L
  BLOOD UREA NITROGEN: 18 mg/dL
  CARBON DIOXIDE: 33 mmol/L
  CHLORIDE: 102 MEQ/L
  CHOLESTEROL: 75.33 mg/dL
  CREATINE PHOSPHOKINASE: 156.33 u/L
  CREATININE: 0.2 mg/dL
  GLUCOSE: 153 mg/dL
  LACTATE DEHYDROGENASE: 135.67 u/L
  LIPASE: 8.67 u/L
  PHOSPHORUS: 14.1 mg/dL
  POTASSIUM: 6.87 MEQ/L
  SODIUM: 146.73 MEQ/L
  TOTAL BILIRUBIN: 0.27 mg/dL
  TOTAL PROTEIN: 6.27 G/DL
  URIC ACID: 1.43 mg/dL
[3]
  ABSOLUTE BASOPHIL: 0 CELLS/uL
  ABSOLUTE EOSINOPHIL: 0 CELLS/uL
  ABSOLUTE LYMPHOCYTE: 11593 CELLS/uL
  ABSOLUTE MONOCYTE: 0 CELLS/uL
  ABSOLUTE SEGMENTED NEUTROPHIL: 1707 CELLS/uL
  BASOPHIL: 0%
  EOSINOPHIL: 0%
  ERYTHROCYTE COUNT: 4.83 x10E6/uL
  HEMATOCRIT: 30.37%
  HEMOGLOBIN: 12.7 G/DL
  LEUKOCYTE COUNT: 13.3 x10E3/uL
  LYMPHOCYTE: 87.67%
  MEAN CORPUSCULAR HEMOGLOBIN: 26.3 pg
  MEAN CORPUSCULAR HEMOGLOBIN CONCENTRATION: 41.83 G/DL
  MEAN CORPUSCULAR VOLUME: 62.8 fL
  MONOCYTE: 0%
  NEUTROPHIL: 12.33%
  NUCLEATED RED BLOOD CELLS: 0 /100WBC
  PLATELET COUNT: 1119.33 x10E3/uL
  ALANINE AMINOTRANSFERASE: 40.33 u/L
  ALBUMIN: 4.27 G/DL
  ALKALINE PHOSPHATASE: 346.33 u/L
  ASPARTATE AMINOTRANSFERASE: 73.67 u/L
  BLOOD UREA NITROGEN: 18.33 mg/dL
  CARBON DIOXIDE: 30.33 mmol/L
  CHLORIDE: 103.33 MEQ/L
  CHOLESTEROL: 70.33 mg/dL
  CREATINE PHOSPHOKINASE: 164 u/L
  CREATININE: 0.15 mg/dL
  GLUCOSE: 140 mg/dL
  LACTATE DEHYDROGENASE: 144 u/L
  LIPASE: 9.33 u/L
  PHOSPHORUS: 12.47 mg/dL
  POTASSIUM: 6.31 MEQ/L
  SODIUM: 145.1 MEQ/L
  TOTAL BILIRUBIN: 0.17 mg/dL
  TOTAL PROTEIN: 5.67 G/DL
  URIC ACID: 1.33 mg/dL
[4]
  ABSOLUTE BASOPHIL: 0 CELLS/uL
  ABSOLUTE EOSINOPHIL: 0 CELLS/uL
  ABSOLUTE LYMPHOCYTE: 12306 CELLS/uL
  ABSOLUTE MONOCYTE: 270 CELLS/uL
  ABSOLUTE SEGMENTED NEUTROPHIL: 990.67 CELLS/uL
  BASOPHIL: 0%
  EOSINOPHIL: 0%
  ERYTHROCYTE COUNT: 5.12 x10E6/uL
  HEMATOCRIT: 32.97%
  HEMOGLOBIN: 13.17 G/DL
  LEUKOCYTE COUNT: 13.57 x10E3/uL
  LYMPHOCYTE: 90.67%
  MEAN CORPUSCULAR HEMOGLOBIN: 25.77 pg
  MEAN CORPUSCULAR HEMOGLOBIN CONCENTRATION: 39.93 G/DL
  MEAN CORPUSCULAR VOLUME: 64.53 fL
  MONOCYTE: 2%
  NEUTROPHIL: 7.33%
  NUCLEATED RED BLOOD CELLS: 0.33 /100WBC
  PLATELET COUNT: 1460 x10E3/uL
  ALANINE AMINOTRANSFERASE: 52.33 u/L
  ALBUMIN: 4.33 G/DL
  ALKALINE PHOSPHATASE: 352.67 u/L
  ASPARTATE AMINOTRANSFERASE: 78.67 u/L
  BLOOD UREA NITROGEN: 18 mg/dL
  CARBON DIOXIDE: 34.67 mmol/L
  CHLORIDE: 100.67 MEQ/L
  CHOLESTEROL: 77.33 mg/dL
  CREATINE PHOSPHOKINASE: 322.67 u/L
  CREATININE: 0.29 mg/dL
  GLUCOSE: 137 mg/dL
  LACTATE DEHYDROGENASE: 304 u/L
  LIPASE: 11 u/L
  PHOSPHORUS: 11.17 mg/dL
  POTASSIUM: 6.32 MEQ/L
  SODIUM: 143.43 MEQ/L
  TOTAL BILIRUBIN: 0.23 mg/dL
  TOTAL PROTEIN: 5.9 G/DL
  URIC ACID: 1.43 mg/dL
